In patent US9169254B2, “Spiroimidazolone derivative” (Chugai Seiyaku Kabushiki Kaisha, priority 2009, dated 2015):

Target: T1, human PTH1 receptor (Homo sapiens, UniProt Q03431)
T1 sequence (Q03431 27-593): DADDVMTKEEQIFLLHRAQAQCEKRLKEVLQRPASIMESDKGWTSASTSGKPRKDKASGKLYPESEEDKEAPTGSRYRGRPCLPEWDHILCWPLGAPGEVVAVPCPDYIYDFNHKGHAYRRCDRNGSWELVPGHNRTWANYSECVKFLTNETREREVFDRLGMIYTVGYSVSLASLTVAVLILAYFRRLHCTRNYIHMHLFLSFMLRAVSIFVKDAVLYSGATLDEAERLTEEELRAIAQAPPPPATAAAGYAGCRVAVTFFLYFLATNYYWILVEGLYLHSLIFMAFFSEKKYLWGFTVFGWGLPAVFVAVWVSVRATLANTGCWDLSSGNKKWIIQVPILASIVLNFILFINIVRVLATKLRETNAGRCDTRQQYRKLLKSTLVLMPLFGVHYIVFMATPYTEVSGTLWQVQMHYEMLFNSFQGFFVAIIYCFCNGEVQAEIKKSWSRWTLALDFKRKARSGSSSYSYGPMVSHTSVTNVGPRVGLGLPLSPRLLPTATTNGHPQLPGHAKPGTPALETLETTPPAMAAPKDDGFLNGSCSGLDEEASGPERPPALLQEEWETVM
Assay: In vitro cAMP signal activity in HKRK-B7 cells (LLC-PK1 cells overexpressing the human PTH1 receptor)
Format: cell-based
Conditions: HKRK-B7 cells; compound at 1×10^−3 M; cAMP produced as percentage of that produced by hPTH(1-34) at 100 nM

SMILES | cAMP production activity (%)
CCCCC1CCC(C2=NC3(CCN(S(=O)(=O)/C=C/c4c(C)cc(N(CCOCCOC)C(C)=O)cc4C)CC3)C(=O)N2)CC1 (stereo not shown) [Compound 561, N-(4-{(E)-2-[2-(4-butyl-cyclohexyl)-4-oxo-1,3,8-triaza-spiro[4.5]dec-1-ene-8-sulfonyl]-vinyl}-3,5-dimethyl-phenyl)-N-[2-(2-methoxy-ethoxy)-ethyl]-acetamide] | 52
CCCCC1CCC(C2=NC3(CCN(S(=O)(=O)/C=C/c4c(C)cc(N(CCOCCF)C(C)=O)cc4C)CC3)C(=O)N2)CC1 (stereo not shown) [Compound 562, N-(4-{(E)-2-[2-(4-butyl-cyclohexyl)-4-oxo-1,3,8-triaza-spiro[4.5]dec-1-ene-8-sulfonyl]-vinyl}-3,5-dimethyl-phenyl)-N-[2-(2-fluoro-ethoxy)-ethyl]-acetamide] | 74
Cc1cc(N2C(=O)CNC2=O)ccc1/C=C/S(=O)(=O)N1CCC2(CC1)N=C(C1CCC(C(C)C)CC1)NC2=O (stereo not shown) [Compound 563, 3-(4-{(E)-2-[2-(4-Isopropyl-cyclohexyl)-4-oxo-1,3,8-triaza-spiro[4.5]dec-1-ene-8-sulfonyl]-vinyl}-3-methyl-phenyl)-imidazolidine-2,4-dione] | 69
Cc1cc(N2C(=O)CNC2=O)cc(C)c1/C=C/S(=O)(=O)N1CCC2(CC1)N=C(C1CCC(C(C)C)CC1)NC2=O (stereo not shown) [Compound 564, 3-(4-{(E)-2-[2-(4-isopropyl-cyclohexyl)-4-oxo-1,3,8-triaza-spiro[4.5]dec-1-ene-8-sulfonyl]-vinyl}-3,5-dimethyl-phenyl)-imidazolidine-2,4-dione] | 68
CN(C)C(=O)NCc1ccc(/C=C/S(=O)(=O)N2CCC3(CC2)N=C(C2CCCCC2)NC3=O)cc1 [Compound 565, 3-{4-[(E)-2-(2-cyclohexyl-4-oxo-1,3,8-triaza-spiro[4.5]dec-1-ene-8-sulfonyl)-vinyl]-benzyl}-1,1-dimethyl-urea] | 45
COC(=O)NCCc1ccc(/C=C/S(=O)(=O)N2CCC3(CC2)N=C(C2CCCCC2)NC3=O)cc1 [Compound 566, (2-{4-[(E)-2-(2-cyclohexyl-4-oxo-1,3,8-triaza-spiro[4.5]dec-1-ene-8-sulfonyl)-vinyl]-phenyl}-ethyl)-carbamic acid methyl ester] | 19
CN1CCN(C(=O)NCc2ccc(/C=C/S(=O)(=O)N3CCC4(CC3)N=C(C3CCCCC3)NC4=O)cc2)CC1 [Compound 567, 4-methyl-piperazine-1-carboxylic acid 4-[(E)-2-(2-cyclohexyl-4-oxo-1,3,8-triaza-spiro[4.5]dec-1-ene-8-sulfonyl)-vinyl]-benzylamide] | 24
Cc1cc(NS(=O)(=O)N(C)C)ccc1/C=C/S(=O)(=O)N1CCC2(CC1)N=C(C1CCCCC1)NC2=O [Compound 568, N-{4-[(E)-2-(2-cyclohexyl-4-oxo-1,3,8-triaza-spiro[4.5]dec-1-ene-8-sulfonyl)-vinyl]-3-methyl-phenyl}-N′,N′-dimethyl-sulfamide] | 39
Cc1cc(CN(CCCN(C)C)C(=O)OC(C)(C)C)ccc1/C=C/S(=O)(=O)N1CCC2(CC1)N=C(C1CCCCC1)NC2=O [Compound 569, {4-[(E)-2-(2-cyclohexyl-4-oxo-1,3,8-triaza-spiro[4.5]dec-1-ene-8-sulfonyl)-vinyl]-3-methyl-benzyl}-(3-dimethylamino-propyl)-carbamic acid tert-butyl ester] | 4.2
CC(C)(C)CNC(=O)Cc1ccc(/C=C/S(=O)(=O)N2CCC3(CC2)N=C(C2CCCCC2)NC3=O)cc1 [Compound 570, 2-{4-[(E)-2-(2-cyclohexyl-4-oxo-1,3,8-triaza-spiro[4.5]dec-1-ene-8-sulfonyl)-vinyl]-phenyl}-N-(2,2-dimethyl-propyl)-acetamide] | 66
CC(C)N(CCNC(=O)Cc1ccc(/C=C/S(=O)(=O)N2CCC3(CC2)N=C(C2CCCCC2)NC3=O)cc1)C(C)C [Compound 571, 2-{4-[(E)-2-(2-cyclohexyl-4-oxo-1,3,8-triaza-spiro[4.5]dec-1-ene-8-sulfonyl)-vinyl]-phenyl}-N-(2-diisopropylamino-ethyl)-acetamide] | 39
Cc1cc(N2CCC2=O)ccc1/C=C/S(=O)(=O)N1CCC2(CC1)N=C(C1CCCCC1)NC2=O [Compound 572, 2-cyclohexyl-8-{(E)-2-[2-methyl-4-(2-oxo-azetidin-1-yl)-phenyl]-ethenesulfonyl}-1,3,8-triaza-spiro[4.5]dec-1-en-4-one] | 36
Cc1cc(Nc2nccs2)cc(C)c1/C=C/S(=O)(=O)N1CCC2(CC1)N=C(C1CCCCC1)NC2=O [Compound 573, 2-cyclohexyl-8-{(E)-2-[2,6-dimethyl-4-(thiazol-2-ylamino)-phenyl]-ethenesulfonyl}-1,3,8-triaza-spiro[4.5]dec-1-en-4-one] | 35
CC(=O)N(CC1(C)COC1)c1cc(C)c(/C=C/S(=O)(=O)N2CCC3(CC2)N=C(C2CCCCC2)NC3=O)c(C)c1 [Compound 574, N-{4-[(E)-2-(2-cyclohexyl-4-oxo-1,3,8-triaza-spiro[4.5]dec-1-ene-8-sulfonyl)-vinyl]-3,5-dimethyl-phenyl}-N-(3-methyl-oxetan-3-ylmethyl)-acetamide] | 42

The next lines start with the values.

cAMP production activity (%) | SMILES
57 | Cc1cc(N2C(=O)CNC2=O)cc(C)c1/C=C/S(=O)(=O)N1CCC2(CC1)N=C(C1CCC(C)CC1)NC2=O (stereo not shown) [Compound 575, 3-(3,5-Dimethyl-4-{(E)-2-[2-(4-methyl-cyclohexyl)-4-oxo-1,3,8-triaza-spiro[4.5]dec-1-ene-8-sulfonyl]-vinyl}-phenyl)-imidazolidine-2,4-dione]
95 | CCOCc1cc(NC(C)=O)ccc1/C=C/S(=O)(=O)N1CCC2(CC1)N=C(C1CCC(C)CC1)NC2=O (stereo not shown) [Compound 576, N-(3-ethoxymethyl-4-{(E)-2-[2-(4-methyl-cyclohexyl)-4-oxo-1,3,8-triaza-spiro[4.5]dec-1-ene-8-sulfonyl]-vinyl}-phenyl)-acetamide]
74 | Cc1cc(N2COCC2=O)ccc1/C=C/S(=O)(=O)N1CCC2(CC1)N=C(C1CCC(C)CC1)NC2=O (stereo not shown) [Compound 577, 2-(4-methyl-cyclohexyl)-8-{(E)-2-[2-methyl-4-(4-oxo-oxazolidin-3-yl)-phenyl]-ethenesulfonyl}-1,3,8-triaza-spiro[4.5]dec-1-en-4-one]
13 | Cc1cc(N2CCN(C(=O)OC(C)(C)C)CC2=O)ccc1/C=C/S(=O)(=O)N1CCC2(CC1)N=C(C1CCC(C)CC1)NC2=O (stereo not shown) [Compound 578, 4-(3-methyl-4-{(E)-2-[2-(4-methyl-cyclohexyl)-4-oxo-1,3,8-triaza-spiro[4.5]dec-1-ene-8-sulfonyl]-vinyl}-phenyl)-3-oxo-piperazine-1-carboxylic acid tert-butyl ester]
55 | Cc1cc(N2C(=O)OCC2C)ccc1/C=C/S(=O)(=O)N1CCC2(CC1)N=C(C1CCC(C)CC1)NC2=O (stereo not shown) [Compound 579, 2-(4-methyl-cyclohexyl)-8-{(E)-2-[2-methyl-4-(4-methyl-2-oxo-oxazolidin-3-yl)-phenyl]-ethenesulfonyl}-1,3,8-triaza-spiro[4.5]dec-1-en-4-one]
25 | Cc1cc(N2OCCC2=O)ccc1/C=C/S(=O)(=O)N1CCC2(CC1)N=C(C1CCC(C)CC1)NC2=O (stereo not shown) [Compound 580, 2-(4-methyl-cyclohexyl)-8-{(E)-2-[2-methyl-4-(3-oxo-isoxazolidin-2-yl)-phenyl]-ethenesulfonyl}-1,3,8-triaza-spiro[4.5]dec-1-en-4-one]
75 | Cc1cc(N2C(=O)CNC2=O)c(C)cc1/C=C/S(=O)(=O)N1CCC2(CC1)N=C(C1CCC(C)CC1)NC2=O (stereo not shown) [Compound 581, 3-(2,5-dimethyl-4-{(E)-2-[2-(4-methyl-cyclohexyl)-4-oxo-1,3,8-triaza-spiro[4.5]dec-1-ene-8-sulfonyl]-vinyl}-phenyl)-imidazolidine-2,4-dione]
104 | Cc1cc(N2C(=O)NC(C)C2=O)cc(C)c1/C=C/S(=O)(=O)N1CCC2(CC1)N=C(C1CCC(C)CC1)NC2=O (stereo not shown) [Compound 582, 3-(3,5-dimethyl-4-{(E)-2-[2-(4-methyl-cyclohexyl)-4-oxo-1,3,8-triaza-spiro[4.5]dec-1-ene-8-sulfonyl]-vinyl}-phenyl)-5-methyl-imidazolidine-2,4-dione]
85 | Cc1cc(/C=C/S(=O)(=O)N2CCC3(CC2)N=C(C2CCC(C)CC2)NC3=O)cc(C)c1N1C(=O)CNC1=O (stereo not shown) [Compound 583, 3-(2,6-dimethyl-4-{(E)-2-[2-(4-methyl-cyclohexyl)-4-oxo-1,3,8-triaza-spiro[4.5]dec-1-ene-8-sulfonyl]-vinyl}-phenyl)-imidazolidine-2,4-dione]
24 | CC(=O)N(C)c1c(C)cc(/C=C/S(=O)(=O)N2CCC3(CC2)N=C(C2CCC(C)CC2)NC3=O)cc1C (stereo not shown) [Compound 584, N-(2,6-dimethyl-4-{(E)-2-[2-(4-methyl-cyclohexyl)-4-oxo-1,3,8-triaza-spiro[4.5]dec-1-ene-8-sulfonyl]-vinyl}-phenyl)-N-methyl-acetamide]
39 | COc1cccc(/C=C/S(=O)(=O)N2CCC3(CC2)N=C([C@H]2CC[C@H](C)CC2)NC3=O)c1C [Compound 585, 8-[(E)-2-(3-methoxy-2-methyl-phenyl)-ethenesulfonyl]-2-(4-methyl-cyclohexyl)-1,3,8-triaza-spiro[4.5]dec-1-en-4-one]
